In PubChem BioAssay (NCI) one finds TGI data, which are given here for 15 molecules.

Among the test systems are SF-268 CNS; LOX IMVI melanoma; HCC-2998 colon; HCT-15 colon; OVCAR-8 ovarian; T-47D breast; MDA-MB-435; HCT-116 colon; HT29 colon; A549 NSCLC; SK-OV-3 ovarian; OVCAR-3 ovarian; MCF7 breast; NCI-H23 lung; KM12 colon; NCI-H522 lung; IGROV1 ovarian; HL-60(TB) leukemia; SK-MEL-28 melanoma; A498 renal.
Holding throughout (assay): NCI-60 cell line screen, 48 h

Molecules are shown by their SMILES.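 Test compounds were applied to cells in 96-well plates for 48 hours at 5 doses. TGI: total growth inhibition.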

For the molecule `NNC(=O)c1cc([N+](=O)[O-])ccc1NC(=O)C12CC3CC(CC(C3)C1)C2`, the TGI is > 100 µM with SF-268 CNS; 20.1 µM in the assay with LOX IMVI melanoma; 83.4 µM in the assay with HCC-2998 colon; 3.42 µM in the assay on HCT-15 colon; > 100 µM in the assay with OVCAR-8 ovarian; 72.2 µM in the assay on T-47D breast. Also, the TGI is 48.5 µM in the assay with MDA-MB-435; > 100 µM with HCT-116 colon; > 100 µM in the assay on HT29 colon; 51.7 µM with A549 NSCLC; 42.4 µM in the assay with SK-OV-3 ovarian; 84.3 µM with OVCAR-3 ovarian. Further, the TGI in the assay on MCF7 breast is > 100 µM; in the assay on NCI-H23 lung, > 100 µM; in the assay on KM12 colon, > 100 µM; in the assay on NCI-H522 lung, 15.1 µM; in the assay with IGROV1 ovarian, 8.53 µM; in the assay with HL-60(TB) leukemia, 22.1 µM.

With `CCCCCCc1cc2cc(-c3cn4c(n3)sc3ccccc34)c(=O)oc2cc1O`, the TGI with SF-268 CNS, with LOX IMVI melanoma, in the assay with HCC-2998 colon, in the assay on HCT-15 colon, in the assay on OVCAR-8 ovarian and with T-47D breast was > 100 µM in each case. Also, the TGI in the assay on SK-MEL-28 melanoma, in the assay with MDA-MB-435, in the assay with HCT-116 colon, in the assay with HT29 colon, with A549 NSCLC and in the assay on SK-OV-3 ovarian was > 100 µM throughout. The TGI with OVCAR-3 ovarian, with MCF7 breast, in the assay with NCI-H23 lung, in the assay with KM12 colon, with NCI-H522 lung and with IGROV1 ovarian was > 100 µM throughout. The TGI in the assay on HL-60(TB) leukemia is > 100 µM.

On to `CC(=O)NC1CC(C(C)(C)NC(C)=O)CC=C1C` (stereo not drawn), for which the TGI in the assay with SF-268 CNS, with LOX IMVI melanoma, in the assay on HCC-2998 colon, with HCT-15 colon, in the assay on OVCAR-8 ovarian and in the assay with T-47D breast was > 100 µM each time. Moreover, the TGI in the assay on SK-MEL-28 melanoma, with MDA-MB-435, in the assay on HCT-116 colon, in the assay with HT29 colon, in the assay on A549 NSCLC and with SK-OV-3 ovarian was > 100 µM throughout. In addition, the TGI with OVCAR-3 ovarian, in the assay on MCF7 breast, in the assay on NCI-H23 lung, with KM12 colon, in the assay with NCI-H522 lung and in the assay with IGROV1 ovarian was > 100 µM each time. In addition, the TGI in the assay on HL-60(TB) leukemia is > 100 µM.

As to `Cc1c(NC(=O)CSC(=S)N(C)C)c(=O)n(-c2ccccc2)n1C`, the TGI with SF-268 CNS, with LOX IMVI melanoma, with HCC-2998 colon, in the assay with HCT-15 colon, in the assay on OVCAR-8 ovarian and with T-47D breast was > 100 µM in each case. The TGI with SK-MEL-28 melanoma, in the assay with MDA-MB-435, in the assay on HCT-116 colon, in the assay with HT29 colon, with A549 NSCLC and in the assay with SK-OV-3 ovarian was > 100 µM throughout. For the same molecule, the TGI in the assay on OVCAR-3 ovarian, in the assay on MCF7 breast, in the assay on NCI-H23 lung, in the assay on KM12 colon, in the assay with NCI-H522 lung and in the assay with IGROV1 ovarian was > 100 µM each time.

`CN1C(=O)[C@H](c2c[nH]c3ccccc23)[C@H](c2c[nH]c3ccccc23)C1=O`: the TGI was > 100 µM with SF-268 CNS; 37.8 µM in the assay with LOX IMVI melanoma; > 100 µM with HCC-2998 colon; > 59.9 µM with HCT-15 colon; > 100 µM with OVCAR-8 ovarian; > 100 µM with T-47D breast. Besides, the TGI in the assay with SK-MEL-28 melanoma is > 87.6 µM; in the assay with MDA-MB-435, > 77.6 µM; in the assay with HCT-116 colon, > 59.1 µM; in the assay with HT29 colon, > 83.4 µM; with A549 NSCLC it was > 100 µM; with SK-OV-3 ovarian it was > 100 µM. Further, the TGI is > 56.5 µM with OVCAR-3 ovarian; > 100 µM in the assay with MCF7 breast; > 65.1 µM with NCI-H23 lung; > 100 µM with KM12 colon; > 100 µM with NCI-H522 lung; > 45.3 µM with IGROV1 ovarian. Besides, the TGI with HL-60(TB) leukemia is > 46.9 µM.

`CCOC(=O)CC(=O)Nc1cccc2sc3ncccc3c(=O)c12`: the TGI in the assay on SF-268 CNS, with LOX IMVI melanoma, in the assay on HCC-2998 colon, with HCT-15 colon, in the assay on OVCAR-8 ovarian and in the assay on T-47D breast was > 100 µM each time. Moreover, the TGI in the assay with SK-MEL-28 melanoma, with MDA-MB-435, in the assay with HCT-116 colon, with HT29 colon, in the assay on A549 NSCLC and with SK-OV-3 ovarian was > 100 µM each time. Further, the TGI with OVCAR-3 ovarian, in the assay on MCF7 breast, in the assay on NCI-H23 lung, in the assay with KM12 colon and with NCI-H522 lung was > 100 µM each time.

Take `COC1(OC)N=C(N)C2(C#N)C(C)=C3NCN(C)N=C3C12C#N` (stereo not drawn): the TGI with SF-268 CNS, in the assay with LOX IMVI melanoma, in the assay on HCC-2998 colon, in the assay on HCT-15 colon, with OVCAR-8 ovarian and with T-47D breast was > 100 µM throughout. Besides, the TGI in the assay on SK-MEL-28 melanoma, in the assay with MDA-MB-435, in the assay with HCT-116 colon, in the assay on HT29 colon, in the assay with A549 NSCLC and with A498 renal was > 100 µM throughout. Besides, the TGI with SK-OV-3 ovarian, in the assay with OVCAR-3 ovarian, in the assay with MCF7 breast, with NCI-H23 lung, in the assay on KM12 colon and with NCI-H522 lung was > 100 µM throughout. In the assay with IGROV1 ovarian, the TGI is > 100 µM.

Consider `COc1ccc2nc3n(c2c1)C(c1c(F)cccc1F)SC3` (stereo not drawn), for which the TGI with SF-268 CNS, in the assay on LOX IMVI melanoma, with HCC-2998 colon, in the assay on HCT-15 colon, in the assay with OVCAR-8 ovarian and in the assay with T-47D breast was > 100 µM each time. Also, the TGI in the assay with SK-MEL-28 melanoma was > 100 µM; in the assay on MDA-MB-435, > 100 µM; in the assay on HCT-116 colon it was 75.2 µM; in the assay on HT29 colon, > 100 µM; in the assay on A549 NSCLC, > 100 µM; with A498 renal, > 100 µM. Moreover, the TGI with SK-OV-3 ovarian, in the assay with OVCAR-3 ovarian, with MCF7 breast, with NCI-H23 lung, with KM12 colon and in the assay on IGROV1 ovarian was > 100 µM throughout. Also, the TGI in the assay on HL-60(TB) leukemia was determined as 78.7 µM.

Regarding `O=c1[nH]nc(-c2ccccc2)n1-c1cccc([N+](=O)[O-])c1`, the TGI in the assay with SF-268 CNS, in the assay with LOX IMVI melanoma, in the assay on HCC-2998 colon, in the assay with HCT-15 colon, with OVCAR-8 ovarian and in the assay on T-47D breast was > 100 µM each time. The TGI with SK-MEL-28 melanoma, in the assay with MDA-MB-435, with HCT-116 colon, in the assay on HT29 colon, in the assay on A549 NSCLC and in the assay on A498 renal was > 100 µM throughout. Moreover, the TGI in the assay with SK-OV-3 ovarian, in the assay with OVCAR-3 ovarian, in the assay on MCF7 breast, in the assay with NCI-H23 lung, in the assay with KM12 colon and with NCI-H522 lung was > 100 µM throughout. The TGI in the assay with IGROV1 ovarian was > 100 µM.

`CC(=Nc1cccc(Cl)c1)c1ccncc1`: the TGI in the assay with SF-268 CNS, in the assay with LOX IMVI melanoma, in the assay on HCC-2998 colon, in the assay on HCT-15 colon, with OVCAR-8 ovarian and with T-47D breast was > 100 µM throughout. Besides, the TGI with SK-MEL-28 melanoma, in the assay on MDA-MB-435, with HCT-116 colon, in the assay with HT29 colon, with A549 NSCLC and with A498 renal was > 100 µM each time. Also, the TGI with SK-OV-3 ovarian, with OVCAR-3 ovarian, in the assay with MCF7 breast, with NCI-H23 lung, in the assay with KM12 colon and in the assay with NCI-H522 lung was > 100 µM each time. The TGI in the assay with IGROV1 ovarian was > 100 µM.

On to `CNn1c(-c2ccc(C)cc2)n[nH]c1=O`, for which the TGI in the assay on SF-268 CNS, in the assay with LOX IMVI melanoma, in the assay with HCC-2998 colon, in the assay on HCT-15 colon, in the assay with OVCAR-8 ovarian and in the assay on T-47D breast was > 100 µM throughout. Moreover, the TGI with MDA-MB-435, with HCT-116 colon, with HT29 colon, in the assay with A549 NSCLC, in the assay with A498 renal and in the assay on SK-OV-3 ovarian was > 100 µM each time. For the same molecule, the TGI with OVCAR-3 ovarian, with MCF7 breast, in the assay with NCI-H23 lung, with KM12 colon, with NCI-H522 lung and in the assay with IGROV1 ovarian was > 100 µM each time.

Turning to `Cc1ccc2c(n1)NC(=O)C(Cc1ccccc1)(N=[N+]=[N-])C2=O` (stereo not drawn), the TGI with SF-268 CNS, in the assay with HCC-2998 colon, in the assay on HCT-15 colon, in the assay on OVCAR-8 ovarian, in the assay on T-47D breast and in the assay on SK-MEL-28 melanoma was > 100 µM throughout. Further, the TGI with MDA-MB-435, in the assay with HCT-116 colon, in the assay on HT29 colon, in the assay with A549 NSCLC, in the assay on A498 renal and in the assay on SK-OV-3 ovarian was > 100 µM throughout. Besides, the TGI with OVCAR-3 ovarian, in the assay with MCF7 breast, in the assay with NCI-H23 lung, in the assay with KM12 colon, in the assay on NCI-H522 lung and in the assay on IGROV1 ovarian was > 100 µM each time.

`C/C(O)=C(\C=NC(=S)c1cccnc1)C(=O)Nc1ccccc1C`: the TGI with SF-268 CNS, with LOX IMVI melanoma, in the assay with HCC-2998 colon, with HCT-15 colon, in the assay on OVCAR-8 ovarian and with T-47D breast was > 100 µM throughout. The TGI in the assay on SK-MEL-28 melanoma, with MDA-MB-435, with HCT-116 colon, in the assay on HT29 colon, in the assay with A549 NSCLC and in the assay with A498 renal was > 100 µM each time. In addition, the TGI with SK-OV-3 ovarian, with OVCAR-3 ovarian, in the assay with MCF7 breast, in the assay on NCI-H23 lung, with KM12 colon and in the assay on NCI-H522 lung was > 100 µM in each case. In addition, in the assay on IGROV1 ovarian, the TGI is > 100 µM.

Regarding `COc1cc2c(c(OC)c1OC)C(=O)[C@@H](O)[C@H]2NC(N)=O`, the TGI in the assay on SF-268 CNS, with LOX IMVI melanoma, in the assay on HCC-2998 colon, in the assay with HCT-15 colon, in the assay on OVCAR-8 ovarian and in the assay with T-47D breast was > 100 µM throughout. Also, the TGI with SK-MEL-28 melanoma, in the assay with MDA-MB-435, in the assay on HCT-116 colon, in the assay with HT29 colon, in the assay with A549 NSCLC and with OVCAR-3 ovarian was > 100 µM each time. The TGI in the assay with MCF7 breast, with NCI-H23 lung, in the assay on KM12 colon, with NCI-H522 lung, in the assay with IGROV1 ovarian and with HL-60(TB) leukemia was > 100 µM in each case.

Regarding `Cc1cccc(Nc2nc3ccccc3nc2NS(=O)(=O)c2ccccc2)c1`, the TGI in the assay with SF-268 CNS was > 100 µM; with LOX IMVI melanoma it was > 100 µM; in the assay with HCC-2998 colon, 6.93 µM; in the assay on HCT-15 colon, 65.9 µM; in the assay on OVCAR-8 ovarian, > 100 µM; in the assay with T-47D breast, > 100 µM. The TGI in the assay with SK-MEL-28 melanoma, in the assay with MDA-MB-435, in the assay with HCT-116 colon, in the assay with HT29 colon, in the assay on A549 NSCLC and in the assay on SK-OV-3 ovarian was > 100 µM in each case. In addition, the TGI with OVCAR-3 ovarian is 80 µM; with MCF7 breast, > 100 µM; in the assay on NCI-H23 lung, 93.1 µM; in the assay with KM12 colon, > 100 µM; in the assay on NCI-H522 lung, 73.9 µM; in the assay on IGROV1 ovarian, > 100 µM. The same molecule had a TGI in the assay on HL-60(TB) leukemia of 37.8 µM.
